The results in this text go back to patent US9681664B2, “Macrocyclic picolinamides as fungicides” (Dow Agrosciences LLC, priority 2012, dated 2017).

Like-named read-outs stand apart in the source and are kept apart here.

The test system of experiment [1] is Puccinia triticina; Synonym: Puccinia recondite f. sp. tritici. Put plainly: Wheat brown rust (PUCCRT) disease control on wheat seedlings. Particulars: Puccinia triticina, Wheat Brown Rust; for pest or weed control at 100 ppm: high volume application; for pest or weed control at 121.5 g/ha: low volume application, 121.5 g/H. It is filed as in vivo. Summed up:
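Yuma wheat grown to first fully emerged leaf was inoculated with Puccinia triticina spore suspension either before or after fungicide treatment, held overnight at 22° C. and 100% RH in darkness, then kept at 24° C. Fungicide applied by booth sprayer to run-off (acetone/water, 110 ppm Triton X-100) or as EC by track spray.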

Experiment [2] concerns Mycosphaerella graminicola; Anamorph: Septoria tritici. Put plainly: Leaf blotch of wheat (SEPTTR) disease control on wheat seedlings. The format is in vivo. The conditions noted are these: Zymoseptoria tritici, Wheat Leaf Blotch; for pest or weed control at 100 ppm: high volume application; for pest or weed control at 121.5 g/ha: low volume application, 121.5 g/H. Summed up: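 Protective or curative format: Septoria tritici inoculation either preceded or followed fungicide application to first-leaf Yuma wheat. Severity scored 0–100%; control expressed versus untreated.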

[3] abbreviates: 24 h, 1 Day Protectant, read-out: Disease Control PUCCRT 1 DP 100 ppm.
Setting [4] is: 72 h, 3 Day Curative, read-out: Disease Control PUCCRT 3 DC 100 ppm.
Setting [5] is: 24 h, 1 Day Protectant, read-out: Disease Control SEPTTR 1 DP 100 ppm.
Setting [6] is: 72 h, 3 Day Curative, read-out: Disease Control SEPTTR 3 DC 100 ppm.
The mark [7] stands for this setting: 24 h, 1 Day Protectant, read-out: Disease Control PUCCRT 1 DP 121.5 g/H.
Setting [8] is: 72 h, 3 Day Curative, read-out: Disease Control PUCCRT 3 DC 121.5 g/H.
The mark [9] stands for this setting: 24 h, 1 Day Protectant, read-out: Disease Control SEPTTR 1 DP 121.5 g/H.
Setting [10] is: 72 h, 3 Day Curative, read-out: Disease Control SEPTTR 3 DC 121.5 g/H.

Regarding `COc1ccnc(C(=O)N[C@H]2CCC[C@H](Oc3ccccc3)[C@@H](OC(=O)C3CC3)[C@H](C)OC2=O)c1O` [F239], the pest or weed control at 100 ppm in experiment [1] (setting [3]) is 0 to 80%; in experiment [1] (setting [4]) it was below 0%; in experiment [2] (setting [5]), below 0%; in experiment [2] (setting [6]) it was 0 to 80%.

For the compound `COc1ccnc(C(=O)N[C@H]2CCC[C@H](Oc3ccccc3)[C@@H](OC(=O)C3CC3)[C@H](C)OC2=O)c1OCOC(C)=O` [F240], the pest or weed control at 100 ppm in experiment [1] (setting [3]), in experiment [1] (setting [4]), in experiment [2] (setting [5]) and in experiment [2] (setting [6]) was 80 to 100% throughout. Further, the pest or weed control at 121.5 g/ha in experiment [1] (setting [7]), in experiment [1] (setting [8]), in experiment [2] (setting [9]) and in experiment [2] (setting [10]) was 80 to 100% each time.

In the case of `C=C(C)CO[C@H]1CCC[C@H](NC(=O)c2nccc(OC)c2O)C(=O)O[C@@H](C)[C@@H]1OC` [F245], the pest or weed control at 100 ppm in experiment [1] (setting [3]) lay within 80 to 100%; in experiment [1] (setting [4]), 0 to 80%; in experiment [2] (setting [5]), 0 to 80%; in experiment [2] (setting [6]), 80 to 100%.

Turning to `COc1ccnc(C(=O)N[C@H]2CCC[C@H](OCC(C)C)[C@@H](OC)[C@H](C)OC2=O)c1O` [F247], the pest or weed control at 100 ppm in experiment [1] (setting [3]) lay within 80 to 100%; in experiment [1] (setting [4]) it was 80 to 100%; in experiment [2] (setting [5]), 80 to 100%; in experiment [2] (setting [6]), 0 to 80%.

On to `COc1ccnc(C(=O)N[C@H]2CCC[C@H](Oc3ccccc3)[C@@H](OC)[C@H](C)OC2=O)c1O` [F249], for which the pest or weed control at 100 ppm fell in the range of 80 to 100% in experiment [1] (setting [3]), 80 to 100% in experiment [1] (setting [4]), 0 to 80% in experiment [2] (setting [5]) and 0 to 80% in experiment [2] (setting [6]).

`C=C(C)CO[C@H]1CCC[C@H](NC(=O)c2nccc(OC)c2OC(C)=O)C(=O)O[C@@H](C)[C@@H]1OC` [F256]: the pest or weed control at 121.5 g/ha in experiment [1] (setting [7]) is 0 to 80%; in experiment [1] (setting [8]), 80 to 100%; in experiment [2] (setting [9]), below 0%; in experiment [2] (setting [10]), 0 to 80%.

On to `COc1ccnc(C(=O)N[C@H]2CCC[C@H](OCC(C)C)[C@@H](OC)[C@H](C)OC2=O)c1OC(C)=O` [F257], for which the pest or weed control at 121.5 g/ha in experiment [1] (setting [7]), in experiment [1] (setting [8]), in experiment [2] (setting [9]) and in experiment [2] (setting [10]) was 80 to 100% in each case.

For the compound `COc1ccnc(C(=O)N[C@H]2CCC[C@H](Oc3ccccc3)[C@@H](OC)[C@H](C)OC2=O)c1OC(C)=O` [F258], the pest or weed control at 121.5 g/ha in experiment [1] (setting [7]) was in the range of 80 to 100%; in experiment [1] (setting [8]) it was 80 to 100%; in experiment [2] (setting [9]), 0 to 80%; in experiment [2] (setting [10]) it was 0 to 80%.

For the compound `COCCC(=O)Oc1c(OC)ccnc1C(=O)N[C@H]1CCC[C@H](OCC(C)C)[C@@H](OC)[C@H](C)OC1=O` [F259], the pest or weed control at 121.5 g/ha in experiment [1] (setting [7]) is 80 to 100%; in experiment [1] (setting [8]) it was 80 to 100%; in experiment [2] (setting [9]), below 0%; in experiment [2] (setting [10]), 80 to 100%.

On to `COCCC(=O)Oc1c(OC)ccnc1C(=O)N[C@H]1CCC[C@H](Oc2ccccc2)[C@@H](OC)[C@H](C)OC1=O` [F260], for which the pest or weed control at 121.5 g/ha in experiment [1] (setting [7]) is 80 to 100%; in experiment [1] (setting [8]), 80 to 100%; in experiment [2] (setting [9]), 0 to 80%; in experiment [2] (setting [10]) it was 80 to 100%.

Turning to `CCCO[C@H]1CCC[C@H](NC(=O)c2nccc(OC)c2O)C(=O)O[C@@H](C)[C@@H]1Oc1ccc(F)cc1` [F262], the pest or weed control at 100 ppm in experiment [1] (setting [3]) was 0 to 80%; in experiment [1] (setting [4]) it was 80 to 100%; in experiment [2] (setting [5]), 80 to 100%; in experiment [2] (setting [6]) it was 80 to 100%.

As for `CCCO[C@H]1[C@H](C)OC(=O)[C@@H](NC(=O)c2nccc(OC)c2O)CCC[C@@H]1Oc1ccc(F)cc1` [F264], the pest or weed control at 100 ppm fell in the range of 0 to 80% in experiment [1] (setting [3]), 80 to 100% in experiment [1] (setting [4]), 80 to 100% in experiment [2] (setting [5]) and 0 to 80% in experiment [2] (setting [6]).
